Results published in patent US20100273804A1, “PYRIDAZINE DERIVATIVES USEFUL AS FUNGICIDES AND FOR THE TREATMENT OF CANCER” (SYNGENTA CROP PROTECTION, INC., priority 2007, published 2010).

Experiments:
Alternaria solani = experiment: Alternaria solani/tomato/preventive (action against Alternaria on tomato); type: in vivo; conditions: 96 h, tomato plants cv. Roter Gnom, preventive spray, assessed 4 days after inoculation, read-out: inhibit fungal infestation
Experimental: Alternaria solani/Tomato/Preventive (Action Against Alternaria on Tomato) 4 weeks old tomato plants cv. Roter Gnom are treated with the formulated test compound in a spray chamber. Two days after application tomato plants are inoculated by spraying a spore suspension on the test plants. After an incubation period of 4 days at 22° C./18° C. and 95% r.h. in a greenhouse the disease incidence is assessed.

Botrytis cinerea = experiment: Botrytis cinerea/tomato/preventive (action against Botrytis on tomato); type: in vivo; conditions: 72 h, tomato plants cv. Roter Gnom, preventive spray, assessed 3 days after inoculation, read-out: inhibit fungal infestation
Experimental: Botrytis cinerea/tomato/preventive (Action against Botrytis on tomato) 4 weeks old tomato plants cv. Roter Gnom are treated with the formulated test compound in a spray chamber. Two days after application tomato plants are inoculated by spraying a spore suspension on the test plants. After an incubation period of 3 days at 20° C. and 95% r. h. in a greenhouse the disease incidence is assessed.

Puccinia recondita = experiment: Puccinia recondita/wheat/preventive (action against brown rust on wheat); type: in vivo; conditions: 264 h, wheat plants cv. Arina, preventive spray, assessed 11 days after inoculation, read-out: inhibit fungal infestation
Experimental: Puccinia recondita/Wheat/Preventive (Action Against Brown Rust on Wheat) 1 week old wheat plants cv. Arina are treated with the formulated test compound in a spray chamber. One day after application wheat plants are inoculated by spraying a spore suspension ([…] uredospores/ml) on the test plants. After an incubation period of 1 day at 20° C. and 95% r.h. plants are kept for 10 days 20° C./18° C. (day/night) and 60% r.h. in a greenhouse. The disease incidence is assessed 11 days after inoculation.

[1] = test system: Maqnaporthe qrisea (Pyricularia oryzae); experiment: whole plant or invertebrate; type: in vivo; conditions: 144 h, read-out: inhibit fungal infestation
[2] = test system: Pyrenophora teres (Helminthosporium teres); experiment: Pyrenophora teres (Helminthosporium teres)/barley/preventive (action against net blotch on barley); type: in vivo; conditions: 96 h, barley plants cv. Regina, preventive spray, assessed 4 days after inoculation, read-out: inhibit fungal infestation
Experimental: Pyrenophora teres (Helminthosporium teres)/Barley/Preventive (Action Against Net Blotch on Barley) 1-week-old barley plants cv. Regina are treated with the formulated test compound in a spray chamber. Two days after application barley plants are inoculated by spraying a spore suspension (2.6×10^4 conidia/ml) on the test plants. After an incubation period of 4 days at 20° C. and 95% r.h. the disease incidence is assessed.

Septoria tritici = experiment: Septoria tritici/wheat/preventive (action against Septoria leaf spot on wheat); type: in vivo; conditions: Zymoseptoria tritici, wheat plants cv. Riband, preventive spray, assessed 16-18 days after inoculation, read-out: inhibits fungal infestation
Experimental: Septoria tritici/Wheat/Preventive (Action Against Septoria Leaf Spot on Wheat) 2 weeks old wheat plants cv. Riband are treated with the formulated test compound in a spray chamber. One day after application wheat plants are inoculated by spraying a spore suspension (10^6 conidia/ml) on the test plants. After an incubation period of 1 day at 22° C./21° C. and 95% r.h. plants are kept at 22° C./21° C. and 70% r.h. in a greenhouse. The disease incidence is assessed 16-18 days after inoculation.

Uncinula necator = experiment: Uncinula necator/grape/preventive (action against powdery mildew on grape); type: in vivo; conditions: Erysiphe necator, 168 h, grape seedlings cv. Gutedel, preventive spray, assessed 7 days after inoculation, read-out: inhibit fungal infestation
Experimental: Uncinula necator/Grape/Preventive (Action Against Powdery Mildew on Grape) 5 weeks old grape seedlings cv. Gutedel are treated with the formulated test compound in a spray chamber. One day after application grape plants are inoculated by shaking plants infected with grape powdery mildew above the test plants. After an incubation period of 7 days at 24° C./22° C. and 70% r.h. under a light regime of 14/10 h (light/dark) the disease incidence is assessed.

SMILES	melting point [°C]	inhibition at 200 ppm (Alternaria solani) [%]	inhibition at 200 ppm (Botrytis cinerea) [%]	inhibition at 200 ppm (Puccinia recondita) [%]	inhibition at 200 ppm [1] [%]	inhibition at 200 ppm [2] [%]	inhibition at 200 ppm (Septoria tritici) [%]	inhibition at 200 ppm (Uncinula necator) [%]
Cc1n[nH]c(=O)c(-c2c(F)cc(F)cc2F)c1Cc1ccc(Cl)cc1 [I.k.157, 5-(4-chloro-benzyl)-6-methyl-4-(2,4,6-trifluoro-phenyl)-2H-pyridazin-3-one]	212 to 215							
Cc1nnc(Cl)c(-c2c(F)cc(F)cc2F)c1Cc1ccc(Cl)cc1 [I.k.158, 3-chloro-5-(4-chloro-benzyl)-6-methyl-4-(2,4,6-trifluoro-phenyl)-pyridazine]		≥ 80	≥ 80	≥ 80	≥ 80	≥ 80	≥ 80	≥ 80
